Patent US10590113B2, “6-hydroxy-4-oxo-1,4-dihydropyrimidine-5-carboxamides as APJ agonists” (priority 2016, dated 2020)
pEC50: −log10 of the molar value.

Molecular target: T1, human APJ receptor (Homo sapiens, UniProt P35414)
T1 construct: expressed in transfected cells; host or cells: HEK293
T1 sequence (P35414 1-380): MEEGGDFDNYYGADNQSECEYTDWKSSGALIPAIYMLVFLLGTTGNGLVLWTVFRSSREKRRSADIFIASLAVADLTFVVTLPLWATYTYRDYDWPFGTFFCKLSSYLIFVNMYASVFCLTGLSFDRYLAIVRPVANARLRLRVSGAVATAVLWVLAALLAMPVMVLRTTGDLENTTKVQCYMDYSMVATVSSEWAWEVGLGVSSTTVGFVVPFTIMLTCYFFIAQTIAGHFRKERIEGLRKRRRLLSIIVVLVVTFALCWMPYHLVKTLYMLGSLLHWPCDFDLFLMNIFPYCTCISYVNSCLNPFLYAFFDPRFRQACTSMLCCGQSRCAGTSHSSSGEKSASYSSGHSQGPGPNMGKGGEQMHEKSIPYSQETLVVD
Assay: Intracellular cAMP Accumulation Assay (APJ hcAMP, HTRF)
Format: cell-based
Conditions: human APJ, cAMP accumulation; potency range class; read-out: hAPJ cAMP EC50 Potency range
Outline: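 Stably transfected HEK293 cells (5,000/well) incubated 30 min at room temperature with serially diluted compound, […] and 2 μM forskolin. cAMP measured by HTRF after 60 min with detection reagents, quantified against a cAMP standard curve; EC50 from variable-slope sigmoidal fit of inhibition of forskolin-stimulated cAMP.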

pEC50 | Compound
7.00 to 8.00 | CCc1cccc(CC)c1-n1c(COC(C)C)nc(=O)c(C(=O)N2CCC(c3ccncc3)C2)c1O (single isomer, unassigned) [Example 221, 1-(2,6-diethylphenyl)-6-hydroxy-2-[(propan-2-yloxy)methyl]-5-[3-(pyridin-4-yl)pyrrolidine-1-carbonyl]-1,4-dihydropyrimidin-4-one]
7.00 to 8.00 | COc1cccc(OC)c1-n1c(-c2ccc(F)cc2)nc(=O)c(C(=O)N2CCC(c3ccc(Cl)cc3)C2)c1O (single isomer, unassigned) [Example 223]

Same assay, conditions: human APJ, intracellular cAMP accumulation; read-out: hAPJ cAMP EC50 Potency range

pEC50 | Compound
8.00 to 11.00 | COc1cccc(OC)c1-n1c(CCC2CC2)nc(=O)c(C(=O)N2CCC(c3ncc(Cl)cc3F)C2)c1O (single isomer, unassigned) [Example 180, 5-[3-(5-chloro-3-fluoropyridin-2-yl)pyrrolidine-1-carbonyl]-2-(2-cyclopropylethyl)-1-(2,6-dimethoxyphenyl)-6-hydroxy-1,4-dihydropyrimidin-4-one]
8.00 to 11.00 | CC[C@@H](c1cc(F)cc(F)c1)n1c(-c2ccn(CC)n2)nc(=O)c(C(=O)N2CCC(c3ncccc3F)C2)c1O (single isomer, unassigned) [Example 181]
8.00 to 11.00 | CC[C@@H](c1cc(F)cc(F)c1)n1c(-c2cnn(C)c2)nc(=O)c(C(=O)N2CCC(c3ncc(F)cc3F)C2)c1O (single isomer, unassigned) [Example 182]
8.00 to 11.00 | CC[C@@H](c1cc(F)cc(F)c1)n1c(-c2cnn(C)c2)nc(=O)c(C(=O)N2CCC(c3ccc(Cl)cn3)C2)c1O (single isomer, unassigned) [Example 183]
8.00 to 11.00 | CC[C@@H](c1cc(F)cc(F)c1)n1c(-c2ccn(C)n2)nc(=O)c(C(=O)N2CCC(c3ncc(F)cc3F)C2)c1O (single isomer, unassigned) [Example 184]
8.00 to 11.00 | CC[C@@H](c1cc(F)cc(F)c1)n1c(-c2ccn(C)n2)nc(=O)c(C(=O)N2CCC(c3ccc(F)cn3)C2)c1O (single isomer, unassigned) [Example 185]
8.00 to 11.00 | CC[C@@H](c1cc(F)cc(F)c1)n1c(-c2ccn(CC)n2)nc(=O)c(C(=O)N2CCC(c3ncccc3F)C2)c1O (single isomer, unassigned) [Example 186]
8.00 to 11.00 | CC[C@@H](c1cc(F)cc(F)c1)n1c(-c2cnn(C)c2)nc(=O)c(C(=O)N2CCC(c3ccc(Cl)cn3)C2)c1O (single isomer, unassigned) [Example 187]
8.00 to 11.00 | CC[C@@H](c1cc(F)cc(F)c1)n1c(-c2cnn(C)c2)nc(=O)c(C(=O)N2CCC(c3ncc(F)cc3F)C2)c1O (single isomer, unassigned) [Example 188]
8.00 to 11.00 | CC[C@@H](c1cc(F)cc(F)c1)n1c(-c2ccn(C)n2)nc(=O)c(C(=O)N2CCC(c3ncccc3F)C2)c1O (single isomer, unassigned) [Example 189]
8.00 to 11.00 | CC[C@@H](c1cc(F)cc(F)c1)n1c(-c2ccn(C)n2)nc(=O)c(C(=O)N2CCC(c3ccc(Cl)cn3)C2)c1O (single isomer, unassigned) [Example 190]
8.00 to 11.00 | CC[C@@H](c1cc(F)cc(F)c1)n1c(-c2cnn(C)c2)nc(=O)c(C(=O)N2CCC(c3ccc(F)cn3)C2)c1O (single isomer, unassigned) [Example 191]
8.00 to 11.00 | CC[C@@H](c1cc(F)cc(F)c1)n1c(-c2ccn(CC)n2)nc(=O)c(C(=O)N2CCC(c3ncc(F)cc3F)C2)c1O (single isomer, unassigned) [Example 192]
8.00 to 11.00 | CC[C@@H](c1cc(F)cc(F)c1)n1c(-c2ccn(C)n2)nc(=O)c(C(=O)N2CCC(c3ccccc3F)C2)c1O (single isomer, unassigned) [Example 193]
8.00 to 11.00 | CC[C@@H](c1cc(F)cc(F)c1)n1c(-c2ccn(C)n2)nc(=O)c(C(=O)N2CCC(c3ccc(F)cc3)C2)c1O (single isomer, unassigned) [Example 194]
8.00 to 11.00 | CC[C@@H](c1cc(F)cc(F)c1)n1c(-c2ccn(C)n2)nc(=O)c(C(=O)N2CCC(c3ccccc3OC)C2)c1O (single isomer, unassigned) [Example 195]
8.00 to 11.00 | CC[C@@H](c1cc(F)cc(F)c1)n1c(-c2cnn(C)c2)nc(=O)c(C(=O)N2CCC(c3ccccc3F)C2)c1O (single isomer, unassigned) [Example 196]
8.00 to 11.00 | CC[C@@H](c1cc(F)cc(F)c1)n1c(-c2cnn(C)c2)nc(=O)c(C(=O)N2CCC(c3ccc(F)cc3)C2)c1O (single isomer, unassigned) [Example 197]
8.00 to 11.00 | CC[C@@H](c1cc(F)cc(F)c1)n1c(-c2cnn(C)c2)nc(=O)c(C(=O)N2CCC(c3ccccc3OC)C2)c1O (single isomer, unassigned) [Example 198]
8.00 to 11.00 | CC[C@@H](c1cc(F)cc(F)c1)n1c(-c2ccn(C)n2)nc(=O)c(C(=O)N2CCC(c3ccc(F)cn3)C2)c1O (single isomer, unassigned) [Example 199]
8.00 to 11.00 | CC[C@@H](c1cc(F)cc(F)c1)n1c(-c2ccn(C)n2)nc(=O)c(C(=O)N2CCC(c3cc(F)ccn3)C2)c1O (single isomer, unassigned) [Example 200]

pEC50 | Compound
8.00 to 11.00 | CC[C@@H](c1cc(F)cc(F)c1)n1c(-c2ccn(C)n2)nc(=O)c(C(=O)N2CCC(c3ncccc3F)C2)c1O (single isomer, unassigned) [Example 201]
8.00 to 11.00 | CC[C@@H](c1cc(F)cc(F)c1)n1c(-c2ccn(CC)n2)nc(=O)c(C(=O)N2CCC(c3cc(F)ccn3)C2)c1O (single isomer, unassigned) [Example 202]
8.00 to 11.00 | CC[C@@H](c1cc(F)cc(F)c1)n1c(-c2cnn(C)c2)nc(=O)c(C(=O)N2CCC(c3cc(F)ccn3)C2)c1O (single isomer, unassigned) [Example 203]
8.00 to 11.00 | CC[C@@H](c1cc(F)cc(F)c1)n1c(-c2nc(C)cs2)nc(=O)c(C(=O)N2CCC(c3ncccc3F)C2)c1O (single isomer, unassigned) [Example 204]
8.00 to 11.00 | CC[C@@H](c1cc(F)cc(F)c1)n1c(-c2nc(C)cs2)nc(=O)c(C(=O)N2CCC(c3cc(F)ccn3)C2)c1O (single isomer, unassigned) [Example 205]
8.00 to 11.00 | CC[C@@H](c1cc(F)cc(F)c1)n1c(-c2nc(C)cs2)nc(=O)c(C(=O)N2CCC(c3ccc(F)cn3)C2)c1O (single isomer, unassigned) [Example 206]
8.00 to 11.00 | CC[C@@H](c1cc(F)cc(F)c1)n1c(-c2nc(C)cs2)nc(=O)c(C(=O)N2CCC(c3ccccc3OC)C2)c1O (single isomer, unassigned) [Example 207]
8.00 to 11.00 | CC[C@@H](c1cc(F)cc(F)c1)n1c(-c2nc(C)cs2)nc(=O)c(C(=O)N2CCC(c3ccccc3F)C2)c1O (single isomer, unassigned) [Example 208]
8.00 to 11.00 | CC[C@@H](c1cc(F)cc(F)c1)n1c(-c2nc(C)cs2)nc(=O)c(C(=O)N2CCC(c3ccc(Cl)cn3)C2)c1O (single isomer, unassigned) [Example 209]
8.00 to 11.00 | CC[C@@H](c1cc(F)cc(F)c1)n1c(-c2nc(C)cs2)nc(=O)c(C(=O)N2CCC(c3ncc(F)cc3F)C2)c1O (single isomer, unassigned) [Example 210]
8.00 to 11.00 | CC[C@@H](c1cc(F)cc(F)c1)n1c(-c2nc(C)cs2)nc(=O)c(C(=O)N2CCC(c3ccc(F)cc3)C2)c1O (single isomer, unassigned) [Example 211]
8.00 to 11.00 | CC[C@@H](c1cc(F)cc(F)c1)n1c(-c2ccn(CC)n2)nc(=O)c(C(=O)N2CCC(c3ncccc3F)C2)c1O (single isomer, unassigned) [Example 212]
8.00 to 11.00 | CC[C@@H](c1cc(F)cc(F)c1)n1c(-c2ccn(CC)n2)nc(=O)c(C(=O)N2CCC(c3ccc(Cl)cn3)C2)c1O (single isomer, unassigned) [Example 213]
8.00 to 11.00 | CC[C@@H](c1cc(F)cc(F)c1)n1c(-c2ccn(CC)n2)nc(=O)c(C(=O)N2CCC(c3ncc(Cl)cc3F)C2)c1O (single isomer, unassigned) [Example 214]
8.00 to 11.00 | CC[C@@H](c1cc(F)cc(F)c1)n1c(-c2ccn(CC)n2)nc(=O)c(C(=O)N2CCC(c3ncc(F)cc3F)C2)c1O (single isomer, unassigned) [Example 215]
8.00 to 11.00 | CC[C@@H](c1cc(F)cc(F)c1)n1c(-c2ccn(CC)n2)nc(=O)c(C(=O)N2CCC(c3ccc(F)cn3)C2)c1O (single isomer, unassigned) [Example 216]
8.00 to 11.00 | CC[C@@H](c1cc(F)cc(F)c1)n1c(-c2cnn(C)c2)nc(=O)c(C(=O)N2CCC(c3ncc(F)cc3F)C2)c1O (single isomer, unassigned) [Example 217]
8.00 to 11.00 | CC[C@@H](c1cc(F)cc(F)c1)n1c(-c2cnn(C)c2)nc(=O)c(C(=O)N2CCC(c3ccc(Cl)cn3)C2)c1O (single isomer, unassigned) [Example 218]
8.00 to 11.00 | CC[C@@H](c1cc(F)cc(F)c1)n1c(-c2cnn(C)c2)nc(=O)c(C(=O)N2CCC(c3ncccc3F)C2)c1O (single isomer, unassigned) [Example 219]
8.00 to 11.00 | CC[C@@H](c1cc(F)cc(F)c1)n1c(-c2cnn(C)c2)nc(=O)c(C(=O)N2CCC(c3ccc(F)cn3)C2)c1O (single isomer, unassigned) [Example 220]
